Columns and labels:
[1] = tested on: KMS-26 (multiple myeloma (MM)); assay: CellTiter-Glo (CTG) cell proliferation assay, KMS-26; format: cell-based; details: KMS-26, single agent alone, 24 hours; read-out: IC50 for inhibition of proliferation
Procedure: (§1) Anti-proliferative effects were tested by CellTiter-Glo® (CTG) assay. Cells were seeded in 96-well plates and treated with different concentrations of test substance for 24 hours. By using 9 different concentrations of Compound 6 (which were selected in a 3× gradient between 10-3 and 101 μM, i.e., 0.0016, 0.0045, 0.014, 0.041, 0.12, 0.36, 1.1, 3.2, 10 μM) in combination with 3 different concentrations of MDM2 inhibitor (e.g., APG-115) in action for 24 hours, the effects of Compound 6 in combination with the drug were tested. Each test dose was tested with 3 replicate wells.
(§2) Usually, 9 series of doses of the test substance were selected, and added to 96-well plates, 5 μl/well. For the combination experiment, the final volume of the two test substances was 5 μl/well. […] After mixing on a shaker for 2 minutes, leaving at room temperature for 10 minutes, the fluorescence value was read by using a Biotek synergy HIMF plate reader. Using the average fluorescence value of 3 replicate wells, the percentage of cell viability was calculated by the following formula: Cell viability (%)=(fluorescence value of test well—fluorescence value of negative control well)/(fluorescence value of vehicle control-fluorescence value of negative control group)×100%
(§3) The IC50 was calculated using the nonlinear regression data analysis method of Graphpad Prism 6.0 software ([…]). […]

[2] = tested on: KMS-11 (multiple myeloma (MM)); assay: CellTiter-Glo (CTG) cell proliferation assay, KMS-11; format: cell-based; details: Homo sapiens; KMS-11, single agent alone, 24 hours; read-out: IC50 for inhibition of proliferation
Procedure: as §1, §2, §3

Question: `O=C(NS(=O)(=O)c1ccc(NC[C@H]2COCCO2)c([N+](=O)[O-])c1)c1ccc(N2CCN(CC3=C(c4ccc(Cl)cc4)CC4(CCC4)CC3)CC2)cc1Oc1cnc2[nH]ccc2c1` [Compound 6, (S)-N-((4-(((1,4-dioxan-2-yl)methyl)amino)-3-nitrophe-nyl)sulfonyl)-2-((1H-pyrrolo[2,3-b]pyridin-5-yl)oxy)-4-(4-((6-(4-chlorophenyl)spiro[3.5]non-6-en-7-yl)meth-yl)piperazin-1-yl)benzamide] was tested. Which IC50 [1] did it give?
Answer: 14.7 µM

Question: What about the IC50 [2] of the same molecule?
Answer: 10.8 µM
